# Assay results published in article PMC10547636 (Pharmaceutical Research, 2023).
# Columns and labels:
# [1] = Population pharmacokinetic analysis (NONMEM) of intravenous PCM and its metabolites in plasma and urine of preterm neonates born below 32 weeks of gestation; assay type: in vivo; conditions: for fVG / fVS / fVO, distribution volume of metabolite as fraction of VP of PCM: V = fV×VP
# Description: Two datasets were pooled in this study. […] The second dataset consisted of data from 83 neonates born before 32 weeks of gestation who were included in the Drug dosage Improvement in Neonates (DINO) study between September 2014 and July 2017. This study was conducted in four Dutch Neonatal Intensive Care Units. The Erasmus Medical Center ethics review board approved the protocols, and written informed consent from parents/legal guardians was obtained before study initiation (NL47409.078.14, MEC-2014-067, NCT02421068). […] The actual urine collection interval and volume varied and were recorded. Plasma samples of all patients were available. […] In dataset 2, the dosing schedule was based on current weight according to Wang et al. […] The dosing regimen could be adapted in individual patients by the treating physician. […] No urine samples were collected. […] For those BLOQ samples, the values obtained with the assay were still reported and these were used in the PopPK analysis. […] Processing and visualization of output from NONMEM were performed in R 4.2.3 (CRAN.R-project.org). Parameters were estimated using the first-order conditional estimation with interaction (FOCE + I) method. […] Parameter precision was obtained with the R covariance matrix. […] The stochastic model included interindividual variability (IIV) and residual variability (RUV). […] SD assumes that the standard deviation of the residual error is the sum of the additive and proportional components. Separate SD1 and SD2 values were tested for each dataset, compound and for plasma and urine samples. […] In those cases, linear interpolation was used for current weight between two existing current weight measurements of the particular patient. For implementation of continuous covariates (birthweight, current weight, GA, PNA, PMA, birthweight Z-score), linear, power, exponential, and sigmoidal functions were tested. For categorical covariates (gender, SGA), additive shift models were tested. Covariates were evaluated based on OFV by a stepwise forward inclusion (ΔOFV > 6.64, P < 0.01) and backward deletion (ΔOFV < 10.83, P > 0.001) process. Besides this, goodness of fit plots split for datasets and covariate quartiles, plots of individual eta-values versus covariate values (ETA plots), and reduction in inter-individual variability on the parameter of interest, were evaluated. A bootstrap analysis (n = 500) stratified on dataset, was performed to assess the robustness of the final model and parameter estimates. […] The NPDEs of urine samples were plotted together due to a limited number of samples per compound. […] This was done to illustrate the concentration-time profiles of each compound under the current practice of linear bodyweight-based dosing. […] In these simulations, the growth curves published by Anchieta et al.
# [2] = adults; ref [3], [4]; cited from earlier work
SMILES,"fVG / fVS / fVO, distribution volume of metabolite as fraction of VP of PCM ([1]; final model estimate (RSE %))","fVG / fVS / fVO, distribution volume of metabolite as fraction of VP of PCM, bootstrap ([1]; bootstrap estimate (95% CI))",fraction of PCM metabolized into sulphate conjugate [2] [%],fraction of administered PCM excreted unchanged in the urine [2],fraction of administered dose metabolized via the oxidative route (NAPQI) [2],"θPNA50, PNA at which RFS reaches half of RFS0, bootstrap ([1]; PNA in days, bootstrap estimate (95% CI))","θPNA50, PNA at which RFS reaches half of RFS0 ([1]; PNA in days, final model estimate (RSE %))",non-linear formation of CYP2E1 pathway metabolites (PCM-cysteine and PCM-mercapturate) ([1]; among the dosages given in this study),predicted difference in glucuronidation of PCM with PNA ([1]; between day 1 and day 30),"θBWb, power exponent of birthweight (BWb/985) on RFG, bootstrap ([1]; bootstrap estimate (95% CI))","θBWc, power exponent of current weight (BWc/1012) on VP, bootstrap ([1]; bootstrap estimate (95% CI))","VPP, distribution volume of the peripheral compartment, bootstrap ([1]; bootstrap estimate (95% CI), in L)","TVVP, typical distribution volume of the central compartment (VP), bootstrap ([1]; current weight 1012 g, bootstrap estimate (95% CI))","TVVP, typical distribution volume of the central compartment (VP) ([1]; current weight 1012 g, final model estimate (RSE %))","θBWb, power exponent of birthweight (BWb/985) on RFG ([1]; final model estimate (RSE %))","θBWc, power exponent of current weight (BWc/1012) on VP ([1]; final model estimate (RSE %))","VPP, distribution volume of the peripheral compartment ([1]; final model estimate (RSE %), in L)",contribution of glucuronidation to elimination in neonates ([1]; preterm neonates of this study),"TVCLrG / TVCLrS / TVCLrO, typical renal clearance of metabolite, bootstrap ([1]; birthweight 985 g, PNA 5 days, bootstrap estimate (95% CI))","TVCLrG / TVCLrS / TVCLrO, typical renal clearance of metabolite ([1]; birthweight 985 g, PNA 5 days, final model estimate (RSE %))"
"CC(=O)Nc1ccc(OS(=O)(=O)O)cc1 [PCM-sulfate, paracetamol-sulfate]",0.326 (4),0.330 (0.300–0.417),–,–,–,–,–,–,–,–,–,–,–,–,–,–,–,–,–,–
"CC(=O)Nc1ccc(O)cc1 [PCM, paracetamol]",–,–,~30,2–5%,8–10%,8.71 (4.55–15.6),9.18 (23),could not identify this non-linearity,sixfold,0.487 (0.137–0.917),0.844 (0.659–1.05),0.247 (0.167–0.348),0.955 (0.775–1.030) L,0.955 (3) L,0.479 (45),0.836 (11),0.244 (12),5–15%,–,–
"CC(=O)Nc1ccc(O[C@@H]2O[C@H](C(=O)O)[C@@H](O)[C@H](O)[C@H]2O)cc1 [PCM-glucuronide, paracetamol-glucuronide]",0.6 (9),0.6 (0.5–0.8),–,–,–,–,–,–,–,–,–,–,–,–,–,–,–,–,0.0428 (0.0383–0.0482) L/h,0.0425 (5) L/h
